Paper PMC9499365, “Stereoselective Synthesis and Application of Gibberellic Acid-Derived Aminodiols” (International Journal of Molecular Sciences, 2022)

Legend:
[1] = tested on: HeLa cells (cervical cancer); test: MTT antiproliferative assay, HeLa; format: cell-based, human; settings: 72 h; for inhibition at 10 µM / inhibition at 30 µM: read-out: Growth inhibition (%) ± SEM
Description: (§1) The in vitro antiproliferative activities of the synthesized aminodiols 4–38 against a panel of different human cancer cell lines of gynecological origin, including cervical (SiHA and HeLa), breast (MCF7 and MDA-MB-231), and ovary (A2780) cancers were assayed by the MTT method. […] Cisplatin, a clinically applied anticancer agent, was used as a reference compound and the results are summarized in Figure 3 and Table S1 in Supporting Information. […] On the other hand, none of the prepared azole derivatives exerted relevant activity.
(§2) The growth-inhibitory effects of the gibberellic acid-based aminodiol derivatives were determined by a standard MTT (3-(4,5-dimethylthiazol-2-yl)-2,5-diphenyltetrazolium bromide) assay on a panel containing five cell lines, including Hela and Siha (cervical cancers); MDA-MB-231 and MCF-7 (breast cancers); and A2780 ovarian cancer cells. The most promising agents were additionally tested against NIH/3T3 mouse embryo fibroblast cells. All cell lines were purchased from the European Collection of Cell Cultures (Salisbury, UK) except SiHa, which was obtained from the American Tissue Culture Collection (Manassas, VA, USA). The cells were maintained in minimal essential medium supplemented with 10% fetal bovine serum, 1% non-essential amino acids, and 1% penicillin-streptomycin at 37 °C in a humidified atmosphere containing 5% CO2. All media and supplements were obtained from Lonza Group Ltd., (Basel, Switzerland). Cancer cells were seeded into 96-well plates (5000 cells/well), after an overnight incubation the test compound was added in 2 different concentrations (10 µM and 30 µM) and incubated for another 72 h under cell-culturing conditions. Then, 20 μL of 5 mg/mL MTT solution was added to each well and incubated for a further 4 h. The medium was removed, and the precipitated formazan crystals were dissolved in DMSO during 60 min of shaking at 37 °C. As the final step, the absorbance was measured at 545 nm by using a microplate reader (SPECTROStar Nano, BMG Labtech, Offenburg, Germany). Untreated cells were included as controls. […] These agents were additionally tested against NIH/3T3 fibroblasts to obtain results about their cancer selectivity. Two independent experiments were performed with five wells for each condition. Cisplatin (Ebewe GmbH, Unterach, Austria), a clinically used anticancer agent, was used as a positive control. Calculations were performed utilizing the GraphPad Prism 5.01 software (GraphPad Software Inc., San Diego, CA, USA).

[2] = tested on: SiHa cells (cervical cancer); test: MTT antiproliferative assay, SiHa; format: cell-based, human; settings: 72 h; for inhibition at 10 µM / inhibition at 30 µM: read-out: Growth inhibition (%) ± SEM
Description: as §1, §2

[3] = tested on: MDA-MB-231 cells (breast cancer); test: MTT antiproliferative assay, MDA-MB-231; format: cell-based, human; settings: for Growth inhibition (%) ± SEM / inhibition at 10 µM / inhibition at 30 µM: 72 h; for IC50: MDA-MB-231, 72 h; for inhibition at 10 µM / inhibition at 30 µM: read-out: Growth inhibition (%) ± SEM
Description: as §1, §2

[4] = tested on: A2780 ovarian cancer cells; test: MTT antiproliferative assay, A2780; format: cell-based, human; settings: for Growth inhibition (%) ± SEM / inhibition at 10 µM / inhibition at 30 µM: 72 h; for IC50: A2780, 72 h; for inhibition at 10 µM / inhibition at 30 µM: read-out: Growth inhibition (%) ± SEM
Description: as §1, §2

[5] = tested on: NIH/3T3 mouse embryo fibroblast cells; test: MTT assay on non-cancerous fibroblasts (cancer selectivity); format: cell-based; settings: for Growth inhibition (%) ± SEM / inhibition at 10 µM / inhibition at 30 µM: 72 h; for IC50: NIH/3T3, 72 h; for cancer selectivity (cancer cells vs NIH/3T3 fibroblasts), words: comparison of IC50 on fibroblasts and malignant cell lines; for inhibition at 10 µM / inhibition at 30 µM: read-out: Growth inhibition (%) ± SEM
Description: as §1, §2

[6] = DPPH free radical scavenging assay; settings: concentration range 3–100 µM
Description: As a consequence, in vitro antioxidant activities of selected N-aliphatic- and N-aryl-substituted aminodiols were determined by 1,1-diphenyl-2-picrylhydrazyl (DPPH) assay.
The antioxidant effects of the aminodiol derivatives were tested on 1,1-diphenyl-2-picrylhydrazyl (DPPH) radicals according to Brand-Williams (1995) [55] and Sánchez-Moreno (2002) [56], with some modifications. […] After a 30 min incubation period at room temperature (25 °C) the absorbances were measured at 517 nm by a microplate reader (SPECTROStar Nano, BMG Labtech, Offenburg, Germany). Trolox (3,4-Dihydro-6-hydroxy-2,5,7,8-tetramethyl-2H-1-benzopyran-2-carboxylic acid) was used as a positive control. All measurements were performed in duplicate with 5 parallels.

[7] = tested on: panel of human cancer cell lines; test: MTT antiproliferative assay, panel of human cancer cell lines (summary statements); format: cell-based; settings: range over the cancer cell lines, read-out: calculated IC50 value on the malignant cell lines
Description: as §1
The growth-inhibitory effects of the gibberellic acid-based aminodiol derivatives were determined by a standard MTT (3-(4,5-dimethylthiazol-2-yl)-2,5-diphenyltetrazolium bromide) assay on a panel containing five cell lines, including Hela and Siha (cervical cancers); MDA-MB-231 and MCF-7 (breast cancers); and A2780 ovarian cancer cells. The most promising agents were additionally tested against NIH/3T3 mouse embryo fibroblast cells. All cell lines were purchased from the European Collection of Cell Cultures (Salisbury, UK) except SiHa, which was obtained from the American Tissue Culture Collection (Manassas, VA, USA). […] As the final step, the absorbance was measured at 545 nm by using a microplate reader (SPECTROStar Nano, BMG Labtech, Offenburg, Germany). […]

[8] = Homo sapiens, MDA-MB-231, 10 μM
[9] = Homo sapiens, MDA-MB-231, 30 μM
[10] = Mus musculus, NIH3T3, NIH/3T3, 10 μM
[11] = Mus musculus, NIH3T3, NIH/3T3, 30 μM

Row | SMILES | cancer selectivity (cancer cells vs NIH/3T3 fibroblasts), words [5] | DPPH scavenging activity [6] | inhibition at 10 µM ([1]; Homo sapiens, 10 μM) | inhibition at 30 µM ([1]; Homo sapiens, 30 μM) | IC50 ([1]; Homo sapiens) | inhibition at 10 µM ([2]; Homo sapiens, 10 μM) | inhibition at 30 µM ([2]; Homo sapiens, 30 μM) | IC50 ([2]; Homo sapiens) | IC50 ([3]; Homo sapiens) | inhibition at 10 µM [3, 8] | inhibition at 30 µM [3, 9] | IC50 ([4]; Homo sapiens) | inhibition at 10 µM ([4]; Homo sapiens, A2780, 10 μM) | inhibition at 30 µM ([4]; Homo sapiens, A2780, 30 μM) | inhibition at 10 µM [5, 10] | inhibition at 30 µM [5, 11] | IC50 ([5]; Mus musculus, NIH3T3) | melting point | also measured
1 | CCOC(=O)[C@H]1c2c(C)cccc2[C@H]2CC[C@]3(O)C[C@@]21C[C@]3(O)CN[C@@H](C)c1ccc2ccccc2c1 [Compound 12] | inhibited the growth of cancer cells and fibroblasts in the same concentration range | None of the six molecules elicited considerable activity | – | – | – | – | – | – | – | – | – | – | – | – | – | – | – | – | Growth inhibition (%) ± SEM ([1]; 10 μM): 97.69 ± 0.28%; Growth inhibition (%) ± SEM ([1]; 30 μM): 97.62 ± 0.55%; IC50 [1]: 4.14 ± 0.38 µM; Growth inhibition (%) ± SEM ([2]; 10 μM): 97.41 ± 0.15%; Growth inhibition (%) ± SEM ([2]; 30 μM): 97.06 ± 0.20%; IC50 [2]: 4.17 ± 0.32 µM; Growth inhibition (%) ± SEM ([3]; MDA-MB-231, 10 μM): 95.00 ± 0.69%; Growth inhibition (%) ± SEM ([3]; MDA-MB-231, 30 μM): 93.72 ± 0.88%; IC50 [3]: 7.19 ± 1.48 µM; Growth inhibition (%) ± SEM ([4]; A2780, 10 μM): 96.29 ± 0.59%; Growth inhibition (%) ± SEM ([4]; A2780, 30 μM): 96.28 ± 0.82%; IC50 [4]: 5.45 ± 0.31 µM; Growth inhibition (%) ± SEM ([5]; NIH/3T3, 10 μM): 90.43 ± 0.15%; Growth inhibition (%) ± SEM ([5]; NIH/3T3, 30 μM): 91.03 ± 0.05%; IC50 [5]: 4.57 ± 0.23 µM
2 | CCOC(=O)[C@H]1c2c(C)cccc2[C@H]2CC[C@]3(O)C[C@@]21C[C@]3(O)CN[C@@H](C)c1cccc2ccccc12 [Compound 13, Ethyl (4bS,7S,8S,9aR,10R)-7,8-dihydroxy-1-methyl-8-((((S)-1-(naphthalen-1-yl)ethyl)amino)methyl)-4b,6,7,8,9,10-hexahydro-5H-7,9a-methanobenzo[a]azulene-10-carboxylate] | modest cancer selectivity | None of the six molecules elicited considerable activity | 97.16 ± 0.49% | 96.87 ± 0.47% | 4.38 ± 0.08 µM | 96.05 ± 0.46% | 96.74 ± 0.27% | 4.69 ± 0.17 µM | 7.49 ± 1.26 µM | 94.86 ± 0.83% | 96 ± 0.92% | 5.3 ± 0.41 µM | 91.2 ± 1.96% | 96.7 ± 1.17% | 40.5 ± 0.86% | 88.1 ± 0.16% | 10.9 µM | – | IC50 [7]: 4.38 to 7.49 µM
3 | CCOC(=O)[C@H]1c2c(C)cccc2C2CC[C@]3(O)C[C@@]21C[C@]3(O)CN[C@H](C)c1cccc2ccccc12 (stereo partly drawn) [Compound 14, Ethyl (7S,8S,9aR,10R)-7,8-dihydroxy-1-methyl-8-((((R)-1-(naphthalen-1-yl)ethyl)amino)methyl)-4b,6,7,8,9,10-hexahydro-5H-7,9a-methanobenzo[a]azulene-10-carboxylate] | inhibited the growth of cancer cells and fibroblasts in the same concentration range | None of the six molecules elicited considerable activity | 98.08 ± 0.19% | 97.4 ± 0.34% | 4.66 ± 0.21 µM | 96.3 ± 2.13% | 97.84 ± 0.42% | 5.25 ± 0.86 µM | 8.04 ± 0.61 µM | 96.57 ± 0.37% | 96.77 ± 0.16% | 5.15 ± 0.28 µM | 96.53 ± 0.73% | 95.9 ± 1.06% | 88.6 ± 0.97% | 88.7 ± 0.98% | 5.02 ± 0.26 µM | – | –
4 | CCOC(=O)[C@H]1c2c(C)cccc2[C@H]2CC[C@]3(O)C[C@@]21C[C@]3(O)CN(C)Cc1ccccc1 [Compound 16, Ethyl (4bS,7S,8S,9aR,10R)-8-((benzyl(methyl)amino)methyl)-7,8-dihydroxy-1-methyl-4b,6,7,8,9,10-hexahydro-5H-7,9a-methanobenzo[a]azulene-10-carboxylate] | – | None of the six molecules elicited considerable activity | < 20% | 36 ± 2.89% | – | < 20% | 23 ± 0.39% | – | – | < 20% | 25 ± 0.99% | – | < 20% | 21.6 ± 0.85% | – | – | – | 94 to 95 °C | –
5 | CCOC(=O)[C@H]1c2c(C)cccc2[C@H]2CC[C@]3(O)C[C@@]21C[C@]3(O)CN [Compound 25, Ethyl (4bS,7S,8S,9aR,10R)-8-(aminomethyl)-7,8-dihydroxy-1-methyl-4b,6,7,8,9,10-hexahydro-5H-7,9a-methanobenzo[a]azulene-10-carboxylate] | – | None of the six molecules elicited considerable activity | < 20% | < 20% | – | < 20% | < 20% | – | – | < 20% | < 20% | – | < 20% | < 20% | – | – | – | 92 to 94 °C | –
6 | CCOC(=O)[C@H]1c2c(C)cccc2[C@H]2CC[C@]3(O)C[C@@]21C[C@]3(O)Cn1nnc2ccccc21 [Compound 30, Ethyl (4bS,7S,8S,9aR,10R)-8-((1H-benzo[d][1,2,3]triazol-1-yl)methyl)-7,8-dihydroxy-1-methyl-4b,6,7,8,9,10-hexahydro-5H-7,9a-methanobenzo[a]azulene-10-carboxylate] | – | None of the six molecules elicited considerable activity | < 20% | < 20% | – | < 20% | 29.5 ± 2% | – | – | < 20% | < 20% | – | < 20% | 26.8 ± 3.79% | – | – | – | – | –
